Consider 19 compounds from US8846601B2, “Melanocortin receptor-specific peptides” (Palatin Technologies, Inc., priority 2009, dated 2014).

In test [1] the target is T1, hMC4-R (Homo sapiens (Human), UniProt P32245). Put plainly: Competitive binding assay using Eu-NDP-α-MSH (TRF), hMC4-R membranes. The note with it: averaged; Eu-NDP-α-MSH (values marked *); read-out: MC4-R Ki. Here is the method:
Alternatively, a competitive inhibition binding assay was performed employing Eu-NDP-α-MSH (PerkinElmer Life Sciences catalog No. AD0225) with determination by time-resolved fluorometry (TRF) of the lanthanide chelate. […] After incubation for 90 minutes at 37° C., the reaction was stopped by filtration over AcroWell 96-well filter plates (Pall Life Sciences). The filter plates were washed 4 times with 200 μL of ice-cold phosphate-buffered saline. DELFIA Enhancement solution (PerkinElmer Life Sciences) was added to each well. […] Each assay was conducted in duplicate and mean values were utilized. Ki values were determined by curve-fitting with Graph-Pad Prism® software using a one-site fixed-slope competition binding model.

Test [2] deals with T1, hMC4-R. Put plainly: Assay for agonist activity: cAMP accumulation in HEK-293 cells that express hMC4-R. The settings on record: for functional status at MC4-R (agonist / partial agonist): agonist = intrinsic activity 70% or higher, partial agonist 10-70%. (Cyclic AMP is a second messenger, typically raised through Gs and lowered through Gi signalling.)
Experimental: By “intrinsic activity” is meant the maximal functional activity achievable by a compound in a specified melanocortin receptor expressing cell system, such as the maximal stimulation of adenylyl cyclase.
Accumulation of intracellular cAMP was examined as a measure of the ability of the peptides of the present invention to elicit a functional response in HEK-293 cells that express MC4-R. Confluent HEK-293 cells that express recombinant hMC4-R were detached from culture plates by incubation in enzyme-free cell dissociation buffer. Dispersed cells were suspended in Earle's Balanced Salt Solution containing 10 mM HEPES (pH 7.5), 1 mM MgCl2, 1 mM glutamine, 0.5% albumin and 0.3 mM 3-isobutyl-1-methyl-xanthine (IBMX), a phosphodiesterase inhibitor. […] Cells were exposed for 15 minutes at 37° C. to peptides of the present invention dissolved in DMSO (final DMSO concentration of 1%) at a concentration range of 0.05-5000 nM in a total assay volume of 200 μL. […] Data analysis was performed by nonlinear regression analysis with Graph-Pad Prism® software. The maximum efficacies of the test peptides of the present invention were compared to that achieved by the reference melanocortin agonist NDP-αMSH.
The target in test [3] is T1, hMC4-R. The test is described as follows: Competitive inhibition binding assay using [I125]-NDP-α-MSH, hMC4-R membranes. Here is the method:
A competitive inhibition binding assay is performed using membrane homogenates prepared from HEK-293 cells that express recombinant hMC4-R, hMC3-R, or hMC5-R, and from B-16 mouse melanoma cells (containing endogenous MC1-R). In some instances, HEK-293 cells that express recombinant hMC1-R were employed. In the examples that follow, all MC3-R, MC4-R and MC5-R values are for human recombinant receptors. […] Membrane homogenates were incubated with 0.2 nM (for hMC4-R) 0.4 nM (for MC3-R and MC5-R) or 0.1 nM (for mouse B16 MC1-R or hMC1-R) [I^125]-NDP-α-MSH (Perkin Elmer) and increasing concentrations of test peptides of the present invention in buffer containing 25 mM HEPES buffer (pH 7.5) with 100 mM NaCl, 2 mM CaCl2, 2 mM MgCl2, 0.3 mM 1,10-phenanthroline, and 0.2% bovine serum albumin. After incubation for 60 minutes at 37° C., the assay mixture was filtered and the membranes washed three times with ice-cold buffer. Filters were dried and counted in a gamma counter for bound radioactivity. […] Maximal specific binding (100%) was defined as the difference in radioactivity (cpm) bound to cell membranes in the absence and presence of 1 μM NDP-α-MSH. […] Each assay was conducted in triplicate and the actual mean values are described, with results less than 0% reported as 0%. Ki values for test peptides of the present invention were determined using Graph-Pad Prism® curve-fitting software.

Peptide text beside a SMILES is read from it.

T1 sequence (P32245 whole entry): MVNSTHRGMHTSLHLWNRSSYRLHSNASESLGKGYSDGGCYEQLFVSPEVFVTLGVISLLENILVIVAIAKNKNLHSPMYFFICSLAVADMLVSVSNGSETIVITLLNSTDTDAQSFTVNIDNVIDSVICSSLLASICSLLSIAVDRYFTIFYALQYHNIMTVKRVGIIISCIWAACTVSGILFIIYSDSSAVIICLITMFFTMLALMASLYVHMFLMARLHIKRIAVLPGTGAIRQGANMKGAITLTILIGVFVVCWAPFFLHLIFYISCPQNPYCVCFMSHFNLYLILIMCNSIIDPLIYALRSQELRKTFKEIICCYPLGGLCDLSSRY

By Ki is commonly meant a dissociation constant, usually derived from enzyme kinetics or from competition with a known ligand. What is called EC50 is the concentration at which the effect is half-maximal. `CC(=O)N[C@@H](CCCNC(=N)N)C(=O)N[C@H]1CCCC(=O)NCC[C@@H](C(N)=O)NC(=O)[C@H](Cc2c[nH]c3ccccc23)NC(=O)[C@H](CCCNC(=N)N)NC(=O)[C@@H](Cc2ccccc2)NC(=O)[C@H](Cc2c[nH]cn2)NC1=O` [compound 126, Ac-Arg-cyclo(hGlu-His- D-Phe-Arg-Trp-Dab)- NH2]: the Ki at hMC4-R [1] turned out to be 1 nM. Also, on hMC4-R [2], the EC50 was 0.047 nM and the “functional status at MC4-R (agonist / partial agonist)” value was “agonist”.
`CC(=O)N[C@@H](CCCNC(=N)N)C(=O)N[C@H]1CC(=O)NCCCC[C@@H](C(N)=O)NC(=O)[C@H](Cc2c[nH]c3ccccc23)NC(=O)[C@H](CCCNC(=N)N)NC(=O)[C@@H](Cc2ccccc2)NC(=O)[C@H](CN)NC1=O` [compound 62, Ac-Arg-cyclo(Asp-Dap- D-Phe-Arg-Trp-Lys)- NH2]: the inhibitory constant (Ki) at hMC4-R [1] came to 80 nM.
Turning to `CCNC(=O)[C@@H]1CCCNC(=O)CC[C@H](NC(=O)[C@H](CCCNC(=N)N)NC(C)=O)C(=O)N[C@@H](Cc2c[nH]cn2)C(=O)N[C@H](Cc2ccccc2)C(=O)N[C@@H](CCCNC(=N)N)C(=O)N[C@@H](Cc2c[nH]c3ccccc23)C(=O)N1` [compound 109, Ac-Arg-cyclo(Glu-His- D-Phe-Arg-Trp-Orn)- NH-Et] (HELM PEPTIDE1{[ac].R.E.H.[dF].R.W.[Orn].[CCN[*:1]]}$PEPTIDE1,PEPTIDE1,3:R3-8:R3$$$V2.0), on hMC4-R [1], the inhibition constant Ki was found to be 6 nM.
In the case of `CC(=O)N[C@@H](CCCNC(=N)N)C(=O)N[C@H]1CC(=O)NCCCC[C@@H](C(=O)O)NC(=O)[C@H](Cc2c[nH]c3ccccc23)NC(=O)[C@H](CCCNC(=N)N)NC(=O)[C@@H](Cc2ccccc2)NC(=O)[C@H](CCCNC(=N)N)NC1=O` [compound 73, Ac-Arg-cyclo(Asp-Arg- D-Phe-Arg-Trp-Lys)-OH], the Ki at hMC4-R [1] came to 60 nM.
For `CC(=O)NC[C@@H]1NC(=O)[C@@H](NC(=O)[C@H](CCCNC(=N)N)NC(C)=O)CC(=O)NCCCC[C@@H](C(N)=O)NC(=O)[C@H](Cc2c[nH]c3ccccc23)NC(=O)[C@H](CCCNC(=N)N)NC(=O)[C@@H](Cc2ccccc2)NC1=O` [compound 114, Ac-Arg-cyclo(Asp- Dab(Acetyl)-D-Phe-Arg- Trp-Lys)-NH2], the Ki at hMC4-R [1] was found to be 88 nM.
`CC(=O)N[C@@H](CCCNC(=N)N)C(=O)N[C@H]1CC(=O)NCCCC[C@@H](C(N)=O)NC(=O)[C@H](Cc2c[nH]c3ccccc23)NC(=O)[C@H](CCCNC(=N)N)NC(=O)[C@@H](Cc2ccccc2)NC(=O)[C@H](CC(C)C)NC1=O` [compound 12, Ac-Arg-cyclo(Asp-Leu- D-Phe-Arg-Trp-Lys)- NH2] (HELM PEPTIDE1{[ac].R.D.L.[dF].R.W.K.[am]}$PEPTIDE1,PEPTIDE1,3:R3-8:R3$$$V2.0): the Ki on hMC4-R [1] was 33 nM.
On to `CC(=O)N[C@@H](CCCNC(=N)N)C(=O)N[C@H]1CC(=O)NCCCC[C@@H](C(N)=O)NC(=O)[C@H](Cc2c[nH]c3ccccc23)NC(=O)[C@H](CCCNC(=N)N)NC(=O)[C@@H](Cc2ccccc2)NC(=O)[C@@H]2C[C@@H](Cc3ccccc3)CN2C1=O` [compound 18, Ac-Arg-cyclo(Asp- Pro(4R-Bzl)-D-Phe-Arg- Trp-Lys)-NH2], for which the Ki on hMC4-R [1] worked out at 3 nM.
With `CC(=O)N[C@@H](CCCNC(=N)N)C(=O)N[C@H]1CC(=O)NCCCC[C@@H](C(N)=O)NC(=O)[C@H](Cc2c[nH]c3ccccc23)NC(=O)[C@H](CCCNC(=N)N)NC(=O)[C@@H](Cc2ccccc2)NC(=O)[C@H](CCCNC(=N)N)NC1=O` [compound 28, Ac-Arg-cyclo(Asp-Arg- D-Phe-Arg-Trp-Lys)- NH2], the Ki on hMC4-R [1] stood at 4 nM.
Consider `CC(=O)N[C@@H](CCCNC(=N)N)C(=O)N[C@H]1CC(=O)NCCCC[C@@H](C(N)=O)NC(=O)[C@H](Cc2c[nH]c3ccccc23)NC(=O)[C@H](CCCNC(=N)N)NC(=O)[C@@H](Cc2ccccc2)NC(=O)[C@H](Cc2ccc(O)cc2)NC1=O` [compound 11, Ac-Arg-cyclo(Asp-Tyr- D-Phe-Arg-Trp-Lys)- NH2] (HELM PEPTIDE1{[ac].R.D.Y.[dF].R.W.K.[am]}$PEPTIDE1,PEPTIDE1,3:R3-8:R3$$$V2.0), for which the Ki on hMC4-R [1] is 43 nM.
As to `CC(=O)N[C@@H](CCCNC(=N)N)C(=O)N[C@H]1CC(=O)NCCCC[C@@H](C(N)=O)NC(=O)[C@H](Cc2c[nH]c3ccccc23)NC(=O)[C@H](CCCCN)NC(=O)[C@@H](Cc2ccccc2)NC(=O)[C@H](CCCCN)NC1=O` [compound 7, Ac-Arg-cyclo(Asp-Lys- D-Phe-Lys-Trp-Lys)- NH2] (HELM PEPTIDE1{[ac].R.D.K.[dF].K.W.K.[am]}$PEPTIDE1,PEPTIDE1,3:R3-8:R3$$$V2.0), the Ki at hMC4-R [1] was 2960 nM.
As for `CC(=O)N[C@@H](CCCNC(=N)N)C(=O)N[C@H]1CC(=O)NCCCC[C@@H](C(N)=O)NC(=O)[C@H](Cc2c[nH]c3ccccc23)NC(=O)[C@H](CCCCN)NC(=O)[C@@H](Cc2ccccc2)NC(=O)[C@H](C)NC1=O` [compound 8, Ac-Arg-cyclo(Asp-Ala- D-Phe-Lys-Trp-Lys)- NH2] (HELM PEPTIDE1{[ac].R.D.A.[dF].K.W.K.[am]}$PEPTIDE1,PEPTIDE1,3:R3-8:R3$$$V2.0), the Ki at hMC4-R [1] amounted to 3020 nM.
For the compound `CC(=O)N[C@H](CCCNC(=N)N)C(=O)N[C@H]1CC(=O)NCCCC[C@@H](C(N)=O)NC(=O)[C@H](Cc2c[nH]c3ccccc23)NC(=O)[C@H](CCCNC(=N)N)NC(=O)[C@@H](Cc2ccccc2)NC(=O)[C@H](CCC(N)=O)NC1=O` [compound 71, Ac-D-Arg-cyclo(Asp- Gln-D-Phe-Arg-Trp- Lys)-NH2], the Ki at hMC4-R [3] (averaged, [I125]-NDP-α-MSH (values not marked *), read-out: MC4-R Ki) was found to be 45 nM; on hMC4-R [3] (read-out: hMC4-R (Ki)), 45 nM. Moreover, a half-maximal effect on hMC4-R [2] (EC50) was put at 2 nM.
With `CC(=O)N[C@H](CCCNC(=N)N)C(=O)N[C@H]1CC(=O)NCCCC[C@@H](C(N)=O)NC(=O)[C@H](Cc2c[nH]c3ccccc23)NC(=O)[C@H](CCCNC(=N)N)NC(=O)[C@@H](Cc2ccccc2)NC(=O)[C@@H]2C[C@@H](Cc3ccccc3)CN2C1=O` [compound 72, Ac-D-Arg-cyclo(Asp- Pro(4R-Bzl)-D-Phe-Arg- Trp-Lys)-NH2], the Ki at hMC4-R [1] was found to be 2 nM.
In the case of `CC(=O)N[C@@H](CCCNC(=N)N)C(=O)N[C@H]1CCCCNC(=O)C[C@@H](C(N)=O)NC(=O)[C@H](Cc2c[nH]c3ccccc23)NC(=O)[C@H](CCCNC(=N)N)NC(=O)[C@@H](Cc2ccccc2)NC(=O)[C@H](Cc2c[nH]cn2)NC1=O` [compound 96, Ac-Arg-cyclo(Lys-His- D-Phe-Arg-Trp-Asp)- NH2] (HELM PEPTIDE1{[ac].R.K.H.[dF].R.W.D.[am]}$PEPTIDE1,PEPTIDE1,3:R3-8:R3$$$V2.0; bridges inferred), at hMC4-R [1], the Ki was 1 nM.
`CC(=O)N[C@@H](CCCNC(=N)N)C(=O)N[C@H]1CC(=O)NCCCC[C@@H](C(N)=O)NC(=O)[C@H](Cc2c[nH]c3ccccc23)NC(=O)[C@H](CCCNC(=N)N)NC(=O)[C@@H](Cc2ccccc2)NC(=O)[C@H](CNC(=O)[C@H]2CCNC2)NC1=O` [compound 118, Ac-Arg-cyclo(Asp- Dap(betaPro)-D-Ph- Arg-Trp-Lys)-NH2]: the Ki at hMC4-R [1] came out at 145 nM.
As for `CC(=O)N[C@@H](CCCNC(=N)N)C(=O)N[C@H]1CC(=O)NCCCC[C@@H](C(N)=O)NC(=O)[C@H](Cc2c[nH]c3ccccc23)NC(=O)[C@H](CCCNC(=N)N)NC(=O)[C@@H](Cc2ccccc2)NC(=O)[C@@H]2C[C@@H](Cc3ccccc3Cl)CN2C1=O` [compound 123, Ac-Arg-cyclo(Asp- Pro(4R-2-Cl-Bzl)-D- Phe-Arg-Trp-Lys)-NH2], the Ki on hMC4-R [1] worked out at 8 nM.
Take `CC(=O)N[C@@H](CCCNC(=N)N)C(=O)N[C@H]1CCNC(=O)CCC[C@@H](C(N)=O)NC(=O)[C@H](Cc2c[nH]c3ccccc23)NC(=O)[C@H](CCCNC(=N)N)NC(=O)[C@@H](Cc2ccccc2)NC(=O)[C@H](Cc2c[nH]cn2)NC1=O` [compound 128, Ac-Arg-cyclo(Dab-His- D-Phe-Arg-Trp-hGlu)- NH2]: the “functional status at MC4-R (agonist / partial agonist)” value on hMC4-R [2] was “agonist”.
On to `CC(=O)N[C@@H](CCCNC(=N)N)C(=O)N[C@H]1CC(=O)NCCCC[C@@H](C(N)=O)NC(=O)[C@H](Cc2c[nH]c3ccccc23)NC(=O)[C@H](CCCNC(=N)N)NC(=O)[C@@H](Cc2ccccc2)NC(=O)[C@@H]2C[C@@H](Cc3cccc(Cl)c3)CN2C1=O` [compound 124, Ac-Arg-cyclo(Asp- Pro(4R-3-Cl-Bzl)-D- Phe-Arg-Trp-Lys)-NH2], for which, at hMC4-R [1], the Ki was 19 nM.
For the compound `CC(=O)N[C@H](CCCNC(=N)N)C(=O)N[C@H]1CC(=O)NCCCC[C@@H](C(N)=O)NC(=O)[C@H](Cc2c[nH]c3ccccc23)NC(=O)[C@H](CCCNC(=N)N)NC(=O)[C@@H](Cc2ccccc2)NC(=O)[C@H](C)NC1=O` [compound 70, Ac-D-Arg-cyclo(Asp- Ala-D-Phe-Arg-Trp- Lys)-NH2], on hMC4-R [1], the Ki was determined as 46 nM.
